Read-outs that look alike come from different tables or passages of the source.
Key:
[1] = tested on: Factor VII (FVII) protein; test: Measurement of Factor VII (FVII) protein in mouse plasma after FVII-siRNA lipid particles; format: in vivo, C57BL6/J mice; details: 0.1 mg/kg caudal vein, plasma 24 hours after administration, PBS group = 100%
Description: The Factor VII (FVII) protein was measured according to the method described in Nature Biotechnology (2010) 28, 172-176. C57BL6/J mice were randomly grouped (n=3). A dispersion liquid of nucleic acid lipid particles was prepared by the same method as that in <Preparation of nucleic acid lipid particles>, except that FVII-siRNA having the sequence described in Molecular Therapy (2009) 17, p. 878 was used instead of Luc-siRNA. The dispersion liquid was administered to the caudal vein of the mice at a dosage of 0.1 mg/kg. For comparison, PBS at the same volume was administered to the caudal vein of the mice. Twenty four hours after the administration, blood was collected from the caudal vena cava, thereby obtaining plasma. The amount of FVII protein was quantified using the obtained plasma and a Biophen FVII assay kit (Aniara).
The FVII amount in the plasma sample of each individual in the PBS administration group was regarded as 100%, and the ratio of the FVII amount in the plasma sample of each individual to 100% was adopted as a measurement value.

[2] = tested on: DMS273 cells constantly expressing Luc; test: Target reporter protein (Luc) knockdown in cell, reporter protein assay; format: cell-based; details: Homo sapiens, DMS-273
Description: The nucleic acid lipid particles prepared by the same method as that in <Preparation of nucleic acid lipid particles> by using the compounds described in Table 3 were evaluated by reporter assay by the following method.
By using pGL4.50 Luc2 (E1310 Promega), DMS273 cells (human small cell lung cancer) (European Collection of Authenticated Cell Cultures) constantly expressing Luc were prepared. RPMI (Gibco) (10% FBS (Gibco), 1% Penicillin-Streptomycin (Gibco), and 200 μg/mL Hygromycin (Wako)) was used as a culture medium. DMS273 cells (2.0×10^3) constantly expressing luciferase (Luc) were seeded in a 96-well plate and cultured in a 5% CO2 incubator for 24 hours, and then the medium was replaced. Then, 10 μL of each of the dispersion liquids of lipid particles diluted with PBS (Gibco) to yield a concentration of 1 to 1,000 nmol/L was added to the 96-well plate, and the final concentration was adjusted to 0.1 to 100 nmol/L (total amount of liquid: 110 μl). Thereafter, the cells were cultured in a 5% CO2 incubator for 24 hours, the medium was then replaced, and the cells were further cultured for 24 hours.
After the viable cell count was determined, the expression amount of Luc was quantified using a Steady Glo assay kit (Promega), and the knockdown efficiency was calculated according to the following equation. Then, the IC50 concentration at which the expression amount of Luc was knocked down to 50% was calculated.

[3] = Particle size of nucleic acid lipid particles (Luc2-siRNA); format: physicochemical; details: compound/DSPC/cholesterol/DMG-PEG2000 50/10/38.5/1.5
Procedure, shortened: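 Lipid particles formed from oil phase (test lipid/DSPC/cholesterol/DMG-PEG2000, 50/10/38.5/1.5 molar, 20 mmol/L total in ethanol) micromixed 1:3 with Luc2-siRNA in pH 4 acetate buffer (19.7 μmol/L); siRNA/lipid 339 mol/mol, PBS-diluted and dialyzed. Size measured on ELS-Z2 dynamic light scattering.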

[4] = Encapsulation rate of siRNA in nucleic acid lipid particles (Luc2-siRNA); format: physicochemical; details: compound/DSPC/cholesterol/DMG-PEG2000 50/10/38.5/1.5
Procedure, shortened: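 Encapsulation rate was calculated as (total − outer-phase siRNA)/total ×100. Total siRNA was quantified spectrophotometrically after lipid-dissolving ethanol precipitation, and unencapsulated siRNA by RiboGreen in TE (ex 485/em 535 nm). The particles were test lipid/DSPC/cholesterol/DMG-PEG2000 at 50/10/38.5/1.5, formed by microfluidic mixing with Luc2-siRNA at pH 4 and dialyzed against PBS.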

[5] = Luc2-siRNA lipid particles using the compound, siRNA 0.1 to 100 nmol/L, concentration at which Luc expression is knocked down to 50%, read-out: IC50

Structure (SMILES)	Relative amount of FVII protein (%) [1] [%]	IC50 [2, 5] [µM]	IC50 [2] [µM]	Particle size (nm) [3] [nm]	Nucleic acid encapsulation rate [4] [%]
CCCCCCCCC(CCCCCCCC)CC(=O)OCCCCCCC(CCCCCCOC(=O)CC(CCCCCCCC)CCCCCCCC)OC(=O)OCCN(CC)CCN(CC)CC [Example 65, 7-(((2-((2-(Diethylamino)ethyl)(ethyl)amino)ethoxy)carbonyl)oxy)tridecane-1,13-diylbis(3-octylundecanoate)]	11				
CCCCCCCCC(CCCCCC)C(=O)OCCCCCC(CCCCCOC(=O)C(CCCCCC)CCCCCCCC)OC(=O)OCCN(CC)CCN(CC)CC (centres unmarked) [Example 71, 6-(((2-((2-(Diethylamino)ethyl)(ethyl)amino)ethoxy)carbonyl)oxy)undecane-1,11-diylbis(2-hexyldecanoate)]	4				
CCCCCCCC/C=C\CCCCCCCC(=O)OCCCCCCC(CCCCCCOC(=O)CCCCCCC/C=C\CCCCCCCC)OC(=O)OCCN(CCN(CC)CC)C(C)C [Example 48, 7-(((2-((2-(Diethylamino)ethyl)(isopropyl)amino)ethoxy)carbonyl)oxy)tridecane-1,13-diyldioleate]	20	0.043			
CCCCCCCC(CCCCCCC)CC(=O)OCCCCCCC(CCCCCCOC(=O)CC(CCCCCCC)CCCCCCC)OC(=O)OCCN(CC)CCN(CC)CC [Example 70, 7-(((2-((2-(diethylamino)ethyl)(ethyl)amino)ethoxy)carbonyl)oxy)tridecane-1,13-diylbis(3-heptyldecanoate)]	6		0.024		
CCCCCCCCCC(CCCCCCC)C(=O)OCCCCCCC(CCCCCCOC(=O)C(CCCCCCC)CCCCCCCCC)OC(=O)OCCN(CC)CCN(CC)CC (centres unmarked) [Example 58, 7-(((2-((2-(Diethylamino)ethyl)(ethyl)amino)ethoxy)carbonyl)oxy)tridecane-1,13-diylbis(2-heptylundecanoate)]	14				
CCCCCCCC(CCCCCCC)C(=O)OCCCCCCC(CCCCCCOC(=O)C(CCCCCCC)CCCCCCC)OC(=O)OCCN(CC)CCN(CC)CC [Example 76, 7-(((2-((2-(Diethylamino)ethyl)(ethyl)amino)ethoxy)carbonyl)oxy)tridecane-1,13-diylbis(2-heptylnonanoate)]	4	0.018			
CCCCCCCCC(CCCCCC)C(=O)OCCCCCCC(CCCCCCOC(=O)C(CCCCCC)CCCCCCCC)OC(=O)OCCN(CCN(CC)CC)C(C)C (centres unmarked) [Example 62, 7-(((2-((2-(Diethylamino)ethyl)(isopropyl)amino)ethoxy)carbonyl)oxy)tridecane-1,13-diylbis(2-hexyldecanoate)]	3				
CCCCC/C=C\C/C=C\CCCCCCCC(CCCCCCCCCC)OC(=O)OCCN(C)CCN(C)C (centres unmarked) [Example 29, 2-((2-(Dimethylamino)ethyl)(methyl)amino)ethyl((19Z,22Z)-octacosa-19,22-dien-11-yl)carbonate]		0.019		70.1	77
CCN(CC)CCN(CC)CCOC(=O)OC(CCCCCCOC(=O)C(CCC(C)CC(C)(C)C)C(C)CC(C)(C)C)CCCCCCOC(=O)C(CCC(C)CC(C)(C)C)C(C)CC(C)(C)C (centres unmarked) [Example 59, 7-(((2-((2-(Diethylamino)ethyl)(ethyl)amino)ethoxy)carbonyl)oxy)tridecane-1,13-diylbis(2-(4,4-dimethylpentan-2-yl)-5,7,7-trimethyloctanoate)]	10				
CCCCC/C=C\C/C=C\CCCCCCCCN(CCCCCCCC/C=C\C/C=C\CCCCC)C(=O)OCCN1CCN(C)CC1 [Comparative Example 5, 2-(4-Methylpiperazin-1-yl)ethyl di((9Z,12Z)-octadeca-9,12-dien-1-yl)carbamate, reference compound]		> 0.1		75.1	87
CCCCCCC(CCCC)COC(=O)CCCCCCCCC(CCCCCC)OC(=O)OCCN(CCN(CC)CC)C(C)C (centres unmarked) [Example 84, 2-butyloctyl 3-ethyl-12-hexyl-6-isopropyl-10-oxo-9,11-dioxa-3,6-diazahenicosan-21-oate]		0.03		81	79
CCCCC/C=C\C/C=C\CCCCCCCCC(CCCCCCCC/C=C\C/C=C\CCCCC)OC(=O)OCCN(C)C [Comparative Example 4, 2-(Dimethylamino)ethyl((6Z,9Z,28Z,31Z)-heptatriaconta-6,9,28,31-tetraen-19-yl)carbonate, reference compound]			> 0.1	62.8	77
CCCCC/C=C\C/C=C\CCCCCCCCC(CCCCCCCC/C=C\C/C=C\CCCCC)OC(=O)OCCN(C)CCN(C)CCO [Example 27, (6Z,9Z,28Z,31Z)-heptatriaconta-6,9,28,31-tetraen-19-yl(2-((2-((2-hydroxyethyl)(methyl)amino)ethyl)(methyl)amino)ethyl)carbonate]		0.031		75.2	75
CCCCC/C=C\C/C=C\CCCCCCCCN(CCCCCCCC/C=C\C/C=C\CCCCC)C(=O)CCN(C)CCN(C)C [Comparative Example 7, 3-((2-(dimethylamino)ethyl)(methyl)amino)-N,N-di((9Z,12Z)-octadeca-9,12-dien-1-yl)propanamide, reference compound]		> 0.1		71.9	87
CCCCC/C=C\C/C=C\CCCCCCCCN(CCCCCCCC/C=C\C/C=C\CCCCC)C(=O)CN(C)CCN(C)C [Comparative Example 6, 2-((2-(dimethylamino)ethyl)(methyl)amino)-N,N-di((9Z,12Z)-octadeca-9,12-dien-1-yl)acetamide, reference compound]		> 0.1		81.9	89
CCCCC/C=C\C/C=C\CCCCCCCCC(CCCCCCCC/C=C\C/C=C\CCCCC)OC(=O)OCCN(C)CCN(C)C [Example 20, 2-((2-(dimethylamino)ethyl)(methyl)amino)ethyl((6Z,9Z,28Z,31Z)-heptatriaconta-6,9,28,31-tetraen-19-yl)carbonate]		0.015		101.6	84
CCCCCCCCC(CCCCCC)COC(=O)CCCCCC(CCCCCC)OC(=O)OCCN(CCN(CC)CC)C(C)C (centres unmarked) [Example 116, 2-Hexyldecyl 3-ethyl-12-hexyl-6-isopropyl-10-oxo-9,11-dioxa-3,6-diazaoctadecan-18-oate]		0.025		76.3	73
CCCCC/C=C\C/C=C\CCCCCCCCC(CCCCCCCC/C=C\C/C=C\CCCCC)OC(=O)CCCN(C)C [Reference Example 1, (6Z,9Z,28Z,31Z)-heptatriaconta-6,9,28,31-tetraen-19-yl-4-(dimethylamino)butanoate, reference compound]		0.047		69.6	81
CCCCC/C=C\C/C=C\CCCCCCCCN(CCCCCCCC/C=C\C/C=C\CCCCC)C(=O)OCCN(C)C [Comparative Example 3, reference compound]			> 0.1	72.4	80

From patent US12370143B2, “Compound or salt thereof and lipid particles” (FUJIFILM Corporation, priority 2018, dated 2025)
